Legend:
[1] = system: gemcitabine-induced neutrophil extravasation; experiment: Gemcitabine-induced neutropenia mice model; type: in vivo
Protocol: Male BALB/c mice were randomly divided into 3 groups; normal control group (n=5), gemcitabine only group (n=5) and gemcitabine with PLAG group (n=5). The mice were intraperitoneally (i.p.) injected with 50 mg/kg gemcitabine to induce neutropenia. PLAG was diluted with phosphate-buffered saline (PBS) and then orally administrated at a dose of 50 or 250 mg/kg/day. The normal control group was administered PBS only during the experiment. The whole blood was collected from the orbital sinuses using capillary tubes (Kimble Chase Life Science and Research Products LLC, FL, USA) and collection tubes containing K3E-K3EDTA (Greiner Bio-One International, Germany). To obtain peritoneal cells, 5 ml of cold PBS was injected to the left side of the peritoneal wall using a 5 mL syringe, and the fluid was aspirated from the peritoneum. The collected cells were counted by complete blood count (CBC) analysis using Mindray BC-5300 auto-hematology analyzer (Shenzhen Mindray Biomedical Electronics, China). To establish a 4T1 tumor-bearing mice model, the murine 4T1 mammary carcinoma cells (1×10^5) were subcutaneously injected on the right side of the abdomen. On the 10th day after tumor injection, the mice were intraperitoneally (i.p.) injected with 50 mg/kg gemcitabine, and the next day the whole blood was collected from the orbital sinuses as mentioned above before sacrificing the animals to obtain different organs of the body for RT-PCR.
PLAG inhibits gemcitabine-induced neutrophil extravasation into the peritoneum by down-regulating the expression of adhesion molecules in normal BALB/c mice. Male BALB/c mice of 8-10 weeks of age were orally administrated with 50 or 250 mg/kg of PLAG and then were intraperitoneally injected with 50 mg/kg gemcitabine. After 24 h, blood samples were collected by retro-orbital bleeding, and the number of blood neutrophils was determined by CBC analysis. Each group contains five mice. The population of blood neutrophils was analyzed by flow cytometry. Red cell-lysed whole blood was stained with FITC-conjugated anti-Ly6G and PE-Cy7-conjugated anti-CD11b antibodies to determine the circulating neutrophil population. Ly6G+/CD11b+ cells were further stained with APC-conjugated anti-L-selectin and APC-conjugated anti-LFA-1 antibodies and were analyzed by flow cytometry to determine the expression of adhesion molecules.
The mice were intraperitoneally (i.p.) injected with 50 mg/kg gemcitabine to induce neutropenia. PLAG was diluted with phosphate-buffered saline (PBS) and then orally administrated at a dose of 50 or 250 mg/kg/day. The normal control group was administered PBS only during the experiment. At 15 h after gemcitabine treatment, the whole blood was collected from the orbital sinuses using capillary tubes (Kimble Chase Life Science and Research Products LLC, FL, USA) and collection tubes containing K3E-K3EDTA (Greiner Bio-One International, Kremsmünster, Austria). To obtain peritoneal cells, 5 ml of cold PBS was injected to the left side of the peritoneal wall using a 5 mL syringe, and the fluid was aspirated from the peritoneum. The collected cells were counted by complete blood count (CBC) analysis using Mindray BC-5300 auto-hematology analyzer (Shenzhen Mindray Biomedical Electronics, Guangdong Sheng, China).
To establish a 4T1 tumor-bearing mice model, the murine 4T1 mammary carcinoma cells (1×105) were subcutaneously injected on the right side of the abdomen. On the 10th day after tumor injection, the mice were intraperitoneally (i.p.) injected with 50 mg/kg gemcitabine, and the next day the whole blood was collected from the orbital sinuses as mentioned above before sacrificing the animals to obtain different organs of the body.

[2] = system: chemotherapy-induced neutropenia; experiment: Chemotherapy-induced neutropenia in pancreatic cancer patients; type: in vivo, human
Excerpt: From January 2014 to September 2014, 16 patients with histologically or cytologically confirmed unresectable pancreatic cancer were enrolled in this study. […] Historical controls were also recruited from Asan Medical Center from March 2012 to December 2013. The eligibility criteria for the control group were the same as those for cases who intake PLAG during gemcitabine-based chemotherapy. The control group (n=32) was matched to the PLAG group (n=16) based on age, performance status, chemotherapy cycle, comorbidity, and disease extent. This study was approved by a hospital institutional review board.
All patients received gemcitabine 1,000 mg/m^2 on days 1, 8, and 15 of each 4-week schedule and daily erlotinib at 100 mg orally. In the PLAG group, PLAG 500 mg was orally administered twice daily from the start of the chemotherapy to the completion. Hematology and serum chemistry analyses were performed at screening baseline, then weekly until the end of the study. Febrile neutropenia (FN) was defined as an ANC of less than 1,000/mm^3 and an oral temperature of more than 38° C. on the same day or the following day after chemotherapy. If on the day of chemotherapy administration, a patient's ANC was reduced to 500-1,000/mm^3 or if the absolute platelet count was reduced to 50,000-100,000/mm^3, the gemcitabine dose was reduced by 75%. Gemcitabine was omitted for 1 week if the neutrophil count was lower than 500/mm^3, or the absolute platelet count was lower than 50,000/mm^3. […] Erlotinib dose was interrupted in patients within tolerable rash and was reduced or discontinued if symptoms persisted for 10-14 days. Erlotinib dose was reduced for grade 2 diarrhea persisting for 48-72 h and for grade 3 diarrhea following resolution to grade 1; erlotinib was permanently discontinued for grade 4 diarrhea. Treatment continued until disease progression unacceptable toxicity, withdrawal of patient's consent or physician's decision. Safety was evaluated throughout the entire study. Toxicity was graded based on the NCI Common Terminology Criteria for Adverse Events (CTCAE) version 3.0.
The primary endpoint was neutropenia, and the secondary endpoint was a safety profile. All analyses were performed using SPSS version 17.0 (SPSS Inc., Chicago, Ill., USA). Descriptive statistics were used to evaluate demographics, and safety data continuous variables were compared using the Mann-Whitney U test, paired t-test, and independent T-test. A P value of <0.05 was considered statistically significant.

SR-A silenced cells = experiment: Phagocytosis and ROS in SR-A silenced cells; type: cell-based

**Q.** What does the source list for `CCCCC/C=C\C/C=C\CCCCCCCC(=O)OC(COC(C)=O)COC(=O)CCCCCCCCCCCCCCC` (racemic) [PLAG, 1-palmitoyl-2-linoleoyl-3-acetylglycerol]?
**A.** neutrophil counts in the peritoneum ([1]; 15 hours after gemcitabine): effectively decreases; gemcitabine-induced cell surface expression of L-selectin and LFA-1 ([1]; Gr-1+/CD11b+ cells): effectively inhibited; circulating neutrophil counts ([1]; PLAG 50 and 250 mg/kg oral, 15 hours after gemcitabine, dose-dependent): restored circulating neutrophils to an almost normal range; population of Gr-1+ and CD11b+ neutrophils in the blood ([1]; gemcitabine 50 mg/kg i.p.): maintained; incidence of neutropenia (ANC<1,500/mm^3, grade 2-4) ([2]; PLAG 500 mg orally twice daily with gemcitabine + erlotinib, n=16): 37.5%; ANC nadir (relative to baseline) ([2]; PLAG group): about 0.75; febrile neutropenia (FN) ([2]; PLAG group): did not occur; severe neutropenia (ANC<500/mm^3, grade 4) ([2]; PLAG group vs control group): developed only in the control group; adverse events related to PLAG during chemotherapy ([2]; including nausea/vomiting, bone pain, fatigue, liver dysfunction): no adverse events related to PLAG; decrease of ANCs from the baseline level ([2]; vs control group, P<0.05): decreased significantly less; PAMP molecules-induced intracellular ROS (SR-A silenced cells; SR-A silenced cells): does not increase; enhanced phagocytosis by PLAG (SR-A silenced cells; knockdown of SR-A): does not show the enhanced phagocytosis

— patent publication US20220339135A1, “COMPOSITIONS AND METHODS FOR MODULATING AN INFLAMMATORY RESPONSE” (Enzychem Lifesciences Corporation, priority 2019, published 2022)
